We go through 7 molecules from US20240408093A1, “HETEROBIFUNCTIONAL COMPOUNDS AND THEIR USE IN TREATING DISEASE” (HALDA THERAPEUTICS OPCO, INC., priority 2022, published 2024).

Each structure is given as a SMILES string.

One experiment addresses T1, KRAS G12C (Homo sapiens, UniProt P01116, C118S/C51S/C80L/G12C).
T1 construct: KRAS G12C C51S C80L C118S (amino acids 1-169)
Description: Release of effector protein ligand from heterobifunctional compounds, KRAS G12C. It is filed as biochemical. Particulars: detected A1-3. As for the experimental part:
(§1) Exemplary heterobifunctional compounds were evaluated for the ability to release an effector protein ligand in the presence of KRAS G12C, BTK, or EGFR T790M L858R target proteins.
(§2) Samples for mass spectrometry for KRAS G12C, BTK, and EGFR T790M L858R were prepared as described above for the intact mass spectrometry target engagement experiment, respectively, except rather than flash-freezing, 20 μL of sample was quenched with 50 μL of 100% acetonitrile. As well, a buffer-only control was used to detect latent release of effector protein ligand analyte. Internal standard (IS) solution consisted of 200 ng/mL propranolol and 50 ng/mL diclofenac in methanol:water 1:1 (v/v). A 4-point calibration curve (calibration standard (CS)) consisting of each analyte was made at final concentrations of 3 nM, 30 nM, 300 nM, and 3000 nM. Unknown samples were diluted such that the unknown analyte concentration was in the linear range of the calibration curve.
(§3) Samples for all proteins were prepared and analyzed from the following:
(§4) Samples were further analyzed with AB Sciex Triple Quad 5500 system coupled with Shimadzu Prominence HPLC.

The target of experiment [1] is T2, KRAS G12C C51S C80L C118S (amino acids 1-169) (Homo sapiens, UniProt P01116, C118S/C51S/C80L/G12C).
T2 construct: KRAS G12C C51S C80L C118S (amino acids 1-169)
The experiment can be described thus: Intact mass spec target engagement, KRAS G12C. It is filed as binding. Particulars: 24 hours post-reaction; 5 μM KRAS G12C, 50 μM compound. As for the experimental part:
(§5) Exemplary heterobifunctional compounds were evaluated for intact mass spectrometry target engagement against KRAS G12C, BTK, or EGFR T790M L858R (amino acids 669-1011; Accession Number NP_005219.2), separately.
(§6) KRAS G12C: Samples were prepared using 5 μM of KRAS G12C C51S C80L C118S (amino acids 1-169) and 50 μM of heterobifunctional compound in a buffer containing 20 mM HEPES pH 7.5, 150 mM NaCl, and 1 mM TCEP. Protein was incubated with heterobifunctional compound at RT or 37° C. for the given amounts of time then flash-frozen and stored at −80° C. until analysis. Samples were transferred to HPLC vials and injected into Dionex UltiMate 3000 FLM HPLC system with a proprietary column (2.1×50 mm, 5 μm, 1000 Å) at 0.3 mL/minute in a column compartment at 50° C. and run on a Q Exactive Hybrid Quadrupole-Orbitrap Mass Spectrometer. Ion Max source with HESI-II probe were used, with a source voltage of 3.5 kV.
(§7) Results showing ability of exemplary heterobifunctional compounds to generate a modified target protein via intact mass spectrometry are shown in Table 13 below. The amount of different components identified by mass spectrometry at 24 hours post-reaction are listed in Table 14, wherein the different components include: • Un-modified Protein—this is starting protein material (e.g., KRAS G12C, BTK, or EGFR T790M L858R) that remained unchanged in the experiment. • Elimination-Conjugate Product—this is a conjugate formed by reaction of protein with the heterobifunctional compound to form a protein conjugate of the following general formula: […]
(§8) Exemplary Other Material can include, for example, residual impurities in the protein starting material used to conduct the experiment.

In experiment [2] the target is T3, BTK (amino acids 387-659) (Homo sapiens, UniProt Q06187).
T3 construct: BTK (amino acids 387-659)
T3 sequence (Q06187 387-659): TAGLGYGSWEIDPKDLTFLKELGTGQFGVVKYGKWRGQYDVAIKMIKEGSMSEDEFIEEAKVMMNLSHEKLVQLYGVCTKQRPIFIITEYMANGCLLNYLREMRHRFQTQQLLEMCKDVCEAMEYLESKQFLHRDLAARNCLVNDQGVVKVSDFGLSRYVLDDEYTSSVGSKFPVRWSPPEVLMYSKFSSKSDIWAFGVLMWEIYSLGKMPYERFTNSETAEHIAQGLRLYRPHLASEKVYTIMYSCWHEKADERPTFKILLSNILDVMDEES
The experiment can be described thus: Intact mass spec target engagement, BTK. Particulars: 24 hours post-reaction; 2 μM BTK, 20 μM compound. It is filed as binding. The protocol:
as §5
as §6, with “BTK: Samples” for “KRAS G12C: Samples”, “using 2” for “using 5”, “of BTK” for “of KRAS G12C C51S C80L C118S”, “acids 387-659)” for “acids 1-169)”, “and 20” for “and 50”, “NaCl,” for “NaCl, and”
as §7, §8

The target of the next experiment is T4, BTK (Homo sapiens, UniProt Q06187).
T4 construct: BTK (amino acids 387-659)
T4 sequence (Q06187 387-659): as above
Description: Release of effector protein ligand from heterobifunctional compounds, BTK. Particulars: detected A1-3. It is filed as biochemical. As for the experimental part:
as §1, §2, §3, §4

Another experiment has as its target T5, GSPT1 (Homo sapiens, UniProt P15170+Q96SW2).
T5 construct: host or cells: HEK293 LgBiT / GSPT1 HiBiT CRISPR knock-in
The experiment can be described thus: GSPT1 HiBiT degradation assay. It is filed as cell-based. Particulars: HEK293 LgBiT GSPT1 HiBiT cells, 6 hours. The gist of the method:
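HEK293 CRISPR knock-in cells expressing LgBiT and GSPT1-HiBiT were seeded at 1000 cells/well and, after 18-24 h, treated with titrated compound plus endurazine (0.5× final) at 37 °C. Luminescence read after 6 h; loss of signal reflects GSPT1 degradation, giving DC50.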
(With HiBiT, luminescence reflects the tagged protein that the partner subunit can reach.)

Experiment [3] deals with T6, full-length BTK (amino acids 1-659) (Homo sapiens, UniProt Q06187).
T6 construct: full-length BTK (amino acids 1-659); host or cells: mammalian cells (HEK-293)
T6 sequence (Q06187 whole entry, the tested form may be a part): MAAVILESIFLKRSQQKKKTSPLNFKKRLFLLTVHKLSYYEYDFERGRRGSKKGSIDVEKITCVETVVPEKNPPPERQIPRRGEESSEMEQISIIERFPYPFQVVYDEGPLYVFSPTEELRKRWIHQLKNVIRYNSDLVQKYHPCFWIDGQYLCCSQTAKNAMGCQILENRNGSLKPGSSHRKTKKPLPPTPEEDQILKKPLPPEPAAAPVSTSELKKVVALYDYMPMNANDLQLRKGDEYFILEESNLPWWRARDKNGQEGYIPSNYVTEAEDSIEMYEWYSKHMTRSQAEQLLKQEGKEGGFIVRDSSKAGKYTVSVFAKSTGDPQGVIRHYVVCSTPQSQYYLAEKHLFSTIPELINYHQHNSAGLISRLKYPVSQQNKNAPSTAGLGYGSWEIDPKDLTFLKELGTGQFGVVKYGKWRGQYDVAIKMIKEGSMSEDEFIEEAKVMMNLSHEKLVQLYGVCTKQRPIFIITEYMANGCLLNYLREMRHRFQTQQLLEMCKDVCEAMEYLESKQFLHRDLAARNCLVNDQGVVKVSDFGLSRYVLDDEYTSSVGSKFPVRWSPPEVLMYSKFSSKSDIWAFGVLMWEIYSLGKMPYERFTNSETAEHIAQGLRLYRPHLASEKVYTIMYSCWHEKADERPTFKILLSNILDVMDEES
Description: KdELECT binding assay, BTK. As for the experimental part: Exemplary compounds were tested for ability to bind to full-length BTK (amino acids 1-659; Accession Number NP_000052.1) expressed from mammalian cells. Compounds were tested using the KdELECT assay.
Kinase-tagged T7 phage strains were prepared in an E. coli host derived from the BL21 strain. E. coli were grown to log-phase and infected with T7 phage and incubated with shaking at 32° C. until lysis. The lysates were centrifuged and filtered to remove cell debris. The remaining kinases were produced in HEK-293 cells and subsequently tagged with DNA for qPCR detection. Streptavidin-coated magnetic beads were treated with biotinylated small molecule ligands for 30 minutes at room temperature to generate affinity resins for kinase assays. The liganded beads were blocked with excess biotin and washed with blocking buffer (SeaBlock (Pierce), 1% BSA, 0.05% Tween 20, 1 mM DTT) to remove unbound ligand and to reduce non-specific binding. Binding reactions were assembled by combining kinases, liganded affinity beads, and test compounds in 1× binding buffer (20% SeaBlock, 0.17× PBS, 0.05% Tween 20, 6 mM DTT). Test compounds were prepared as 111× stocks in 100% DMSO. Kd values were determined using an 11-point 3-fold compound dilution series with three DMSO control points. All compounds for Kd measurements are distributed by acoustic transfer (non-contact dispensing) in 100% DMSO. The compounds were then diluted directly into the assays such that the final concentration of DMSO was 0.9%. All reactions performed in polypropylene 384-well plate. Each was a final volume of 0.02 mL. The assay plates were incubated at room temperature with shaking for 1 hour and the affinity beads were washed with wash buffer (1× PBS, 0.05% Tween 20). The beads were then re-suspended in elution buffer (1× PBS, 0.05% Tween 20, 0.5 μM nonbiotinylated affinity ligand) and incubated at room temperature with shaking for 30 minutes. The kinase concentration in the eluates was measured by qPCR.

In a further experiment the test system is HeLa cells (ATCC CCL-2). The experiment can be described thus: Cellular growth inhibition assay, HeLa cells (Example 16). Format: cell-based. Particulars: Homo sapiens, 72 hours, CellTiter-Glo 2.0. On the technique in general: ATP-based viability assays read luminescence as a measure of living cells.
Experiment [4] concerns HEK293 cells (ATCC CRL-1573). The experiment can be described thus: Cellular growth inhibition assay, HEK293 cells (Example 16). Format: cell-based. Particulars: Homo sapiens, 72 hours, CellTiter-Glo 2.0.

T5 sequence (P15170 whole entry): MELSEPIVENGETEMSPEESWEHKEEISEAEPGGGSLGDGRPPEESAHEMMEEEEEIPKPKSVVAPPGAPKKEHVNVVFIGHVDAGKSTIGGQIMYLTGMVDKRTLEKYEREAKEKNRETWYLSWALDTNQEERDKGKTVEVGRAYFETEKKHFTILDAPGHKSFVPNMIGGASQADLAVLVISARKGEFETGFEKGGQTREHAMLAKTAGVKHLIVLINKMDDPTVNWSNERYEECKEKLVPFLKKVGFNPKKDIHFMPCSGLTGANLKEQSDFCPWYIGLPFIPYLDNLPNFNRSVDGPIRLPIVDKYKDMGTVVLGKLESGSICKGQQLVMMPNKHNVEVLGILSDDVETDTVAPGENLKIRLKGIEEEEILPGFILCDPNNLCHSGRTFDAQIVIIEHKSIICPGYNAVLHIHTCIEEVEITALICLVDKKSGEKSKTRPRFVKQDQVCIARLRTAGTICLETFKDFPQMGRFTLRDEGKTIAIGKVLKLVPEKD
T5 sequence (Q96SW2 whole entry): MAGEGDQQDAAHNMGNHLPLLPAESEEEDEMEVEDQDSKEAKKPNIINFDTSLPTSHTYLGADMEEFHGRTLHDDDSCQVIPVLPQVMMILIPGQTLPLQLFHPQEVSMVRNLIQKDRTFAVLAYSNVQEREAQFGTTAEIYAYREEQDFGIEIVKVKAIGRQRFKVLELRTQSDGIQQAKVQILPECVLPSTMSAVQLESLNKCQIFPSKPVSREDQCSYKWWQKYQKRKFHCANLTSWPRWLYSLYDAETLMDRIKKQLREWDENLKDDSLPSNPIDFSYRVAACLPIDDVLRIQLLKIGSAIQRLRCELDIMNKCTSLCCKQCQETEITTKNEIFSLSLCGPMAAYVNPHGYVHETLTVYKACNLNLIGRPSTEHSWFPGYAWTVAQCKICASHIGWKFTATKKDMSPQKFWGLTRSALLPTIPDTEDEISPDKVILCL
T5 sequence (Q16531 whole entry partner): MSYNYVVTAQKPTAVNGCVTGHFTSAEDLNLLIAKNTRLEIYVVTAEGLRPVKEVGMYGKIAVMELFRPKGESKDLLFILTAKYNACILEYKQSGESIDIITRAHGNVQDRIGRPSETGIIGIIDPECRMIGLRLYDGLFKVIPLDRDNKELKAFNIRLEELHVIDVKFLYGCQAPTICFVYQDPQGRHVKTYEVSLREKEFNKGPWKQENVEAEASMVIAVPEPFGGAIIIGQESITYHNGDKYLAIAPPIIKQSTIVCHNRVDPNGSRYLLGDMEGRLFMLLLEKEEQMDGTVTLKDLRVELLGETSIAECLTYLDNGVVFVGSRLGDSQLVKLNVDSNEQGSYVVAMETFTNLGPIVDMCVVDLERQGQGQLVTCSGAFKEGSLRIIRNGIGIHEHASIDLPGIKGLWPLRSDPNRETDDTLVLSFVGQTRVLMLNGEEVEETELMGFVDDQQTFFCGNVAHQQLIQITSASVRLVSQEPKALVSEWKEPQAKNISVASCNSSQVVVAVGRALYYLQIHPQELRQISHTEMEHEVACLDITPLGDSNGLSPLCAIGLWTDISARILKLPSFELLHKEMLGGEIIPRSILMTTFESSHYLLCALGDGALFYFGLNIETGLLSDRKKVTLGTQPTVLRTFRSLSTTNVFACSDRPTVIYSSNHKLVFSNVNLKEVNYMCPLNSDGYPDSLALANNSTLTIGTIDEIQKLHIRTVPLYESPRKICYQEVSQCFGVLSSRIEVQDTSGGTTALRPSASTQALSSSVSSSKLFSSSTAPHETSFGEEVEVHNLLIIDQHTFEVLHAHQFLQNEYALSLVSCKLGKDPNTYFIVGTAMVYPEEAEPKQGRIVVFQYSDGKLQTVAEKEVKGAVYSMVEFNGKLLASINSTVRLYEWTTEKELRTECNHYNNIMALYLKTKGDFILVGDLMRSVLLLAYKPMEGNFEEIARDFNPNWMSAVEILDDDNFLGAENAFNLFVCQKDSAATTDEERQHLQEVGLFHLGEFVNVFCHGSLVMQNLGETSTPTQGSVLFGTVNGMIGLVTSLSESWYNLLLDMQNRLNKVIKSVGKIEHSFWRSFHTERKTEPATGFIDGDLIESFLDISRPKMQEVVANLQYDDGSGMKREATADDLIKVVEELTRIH

Take `C=C(Cn1cc(CNc2cc(N3CCCC[C@H]3CCO)nc3c(CC)cnn23)ccc1=O)C(=O)N1CCN(c2nc(OC[C@@H]3CCCN3C)nc3c2CCN(c2cccc4cccc(Cl)c24)C3)C[C@@H]1CC#N` [Compound A1-2]: the “Concentration of Effector Protein Ligand” value at KRAS G12C (Matrix Buffer + Protein (KRAS G12C), Time 0 h) is given as 328 nM; at KRAS G12C (Matrix Buffer + Protein (KRAS G12C), Time 2 h) it was 556 nM; at KRAS G12C (Matrix Buffer + Protein (KRAS G12C), Time 8 h), 1170 nM; at KRAS G12C (Matrix Buffer + Protein (KRAS G12C), Time 24 h) it was 2020 nM; at KRAS G12C (Matrix Buffer, Time 0 h), 55.8 nM; at KRAS G12C (Matrix Buffer, Time 2 h), 85.3 nM. Further, the “Concentration of Effector Protein Ligand” value at KRAS G12C (Matrix Buffer, Time 8 h) was determined as 166 nM; on KRAS G12C (Matrix Buffer, Time 24 h), 406 nM. Moreover, the “Percent Other Material” value in experiment [1] is listed as 10%. Moreover, the “Percent of Addition-Conjugate Product” value in experiment [1] is 5%. For the same molecule, in experiment [1], the “Percent of Elimination-Conjugate Product” value amounted to 83%. The “Percent of Un-modified Protein” value in experiment [1] was 2%.

In the case of `C=C(Cn1cc(CNc2cc(N3CCCC[C@H]3CCO)nc3c(CC)cnn23)ccc1=O)C(=O)N1CCC[C@@H](n2nc(-c3ccc(Oc4ccccc4)cc3)c3c(N)ncnc32)C1` [Compound A1-4], the “Percent Other Material” value in experiment [2] worked out at 0%. Besides, in experiment [2], the “Percent of Addition-Conjugate Product” value stood at 24%. Moreover, the “Percent of Elimination-Conjugate Product” value in experiment [2] was determined as 72%. In experiment [2], the “Percent of Un-modified Protein” value is recorded as 4%. The “Concentration of Effector Protein Ligand” value at BTK (Matrix Buffer + Protein (BTK), Time 0 h) is 17.8 nM; at BTK (Matrix Buffer + Protein (BTK), Time 1 h), 281 nM; on BTK (Matrix Buffer + Protein (BTK), Time 4 h), 506 nM; at BTK (Matrix Buffer + Protein (BTK), Time 22 h) it was 460 nM; at BTK (Matrix Buffer, Time 0 h), 4.16 nM; at BTK (Matrix Buffer, Time 1 h) it was 4 nM. Moreover, the “Concentration of Effector Protein Ligand” value at BTK (Matrix Buffer, Time 4 h) worked out at 4.49 nM; on BTK (Matrix Buffer, Time 22 h), 10.4 nM.

As a reminder, the DC50 is the midpoint of the concentration-degradation curve. A lower DC50 goes with a more potent degrader. One may read the Kd as the constant that tells how readily two partners part at equilibrium. As for `C=C(CN1C(=O)CCC(N2Cc3cc(CNC(=O)Nc4ccc(C)c(Cl)c4)ccc3C2=O)C1=O)C(=O)N1CCC[C@@H](n2nc(-c3ccc(Oc4ccccc4)cc3)c3c(N)ncnc32)C1` (stereo partly drawn) [Compound I-3, 1-[[2-[1-[2-[(3R)-3-[4-amino-3-(4-phenoxyphenyl)pyrazolo[3,4-d]pyrimidin-1-yl]piperidine-1-carbonyl]allyl]-2,6-dioxo-3-piperidyl]-1-oxo-isoindolin-5-yl]methyl]-3-(3-chloro-4-methyl-phenyl)urea], the DC50 on GSPT1 was > 2500 nM. This molecule displayed a Kd in experiment [3] of 500 to 2500 nM.

As a reminder, the GI50 is the concentration giving 50% growth inhibition. Higher therefore signals less potent growth inhibition. As for `C=C(CN(Cc1ccc2c(c1)CN(C1CCC(=O)NC1=O)C2=O)C(=O)Nc1ccc(C)c(Cl)c1)C(=O)N1CCC[C@@H](n2nc(-c3ccc(Oc4ccccc4)cc3)c3c(N)ncnc32)C1` (some centres unmarked) [Compound I-31], the DC50 on GSPT1 is > 2500 nM. In experiment [3], this molecule had a Kd of 500 to 2500 nM. Further, the concentration for 50% growth inhibition (GI50) (in the experiment on HeLa cells (ATCC CCL-2); in experiment [4]) was > 10000 nM throughout.

As to `C=C(CN(C(=O)NCc1ccc2c(c1)CN(C1CCC(=O)NC1=O)C2=O)c1ccc(C(F)(F)F)c(Cl)c1)C(=O)N1CCC[C@@H](n2nc(-c3ccc(Oc4ccccc4)cc3)c3c(N)ncnc32)C1` (some centres unmarked) [Compound I-38], the DC50 at GSPT1 is > 2500 nM. Moreover, the Kd in experiment [3] is 500 to 2500 nM. For the same molecule, the GI50 (in the experiment on HeLa cells (ATCC CCL-2); in experiment [4]) was > 10000 nM in each case.

In turn, `C=C(COc1cc(Cl)cc(NC(=O)NCc2ccc3c(c2)CN(C2CCC(=O)NC2=O)C3=O)c1)C(=O)N1CCC[C@@H](n2nc(-c3ccc(Oc4ccccc4)cc3)c3c(N)ncnc32)C1` (some centres unmarked) [Compound I-114] returned a DC50 on GSPT1 of 500 to 2500 nM. The Kd in experiment [3] is < 50 nM. Further, the figures for the GI50 (in the experiment with HeLa cells (ATCC CCL-2); in experiment [4]) were 1500 to 10000 nM and 500 to 1500 nM, respectively.

In turn, `C=C(COc1ccc(Cl)cc1NC(=O)NCc1ccc2c(c1)CN(C1CCC(=O)NC1=O)C2=O)C(=O)N1CCC[C@@H](n2nc(-c3ccc(Oc4ccccc4)cc3)c3c(N)ncnc32)C1` (some centres unmarked) [I-32] registered a Kd in experiment [3] of 50 to 500 nM. Also, the GI50 (in the experiment on HeLa cells (ATCC CCL-2); in experiment [4]) was 500 to 1500 nM in each case.
